Reference: US5624956A, “Urea derivatives useful as platelet aggregation inhibitors” (The Monsanto Company, priority 1995, dated 1997)

Test system: platelet aggregation (dog platelet-rich plasma)
Experiment: In-vitro platelet aggregation in PRP (ADP-induced, dog)
Type: cell-based
Conditions: Canis lupus familiaris, ADP 50 um final concentration; for inhibition at 10 µM: at 10^-5 M, read-out: Dog PRP % Inh; for IC50: preincubation at 37° C., aggregation monitored for 1 minute
Protocol: IN-VITRO PLATELET AGGREGATION IN PRP
Healthy male or female dogs were fasted for 8 hours prior to drawing blood; then 30 ml whole blood was collected using a butterfly needle and 30 cc plastic syringe with 3 ml of 0.129M buffered sodium citrate (3.8%). The syringe was rotated carefully as blood was drawn to mix the citrate. Platelet-rich plasma (PRP) was prepared by centrifugation at 975×g for 3.17 minutes at room temperature allowing the centrifuge to coast to a stop without braking. The PRP was removed from the blood with a plastic pipette and placed in a plastic capped, 50 mL Corning conical sterile centrifuge tube which was held at room temperature. Platelet poor plasma (PPP) was prepared by centrifuging the remaining blood at 2000×g for 15 minutes at room temperature allowing the centrifuge to coast to a stop without braking. The PRP was adjusted with PPP to a count of 2-3×10^8 platelets per mL. 400 uL of the PRP preparation and 50 uL of the compounds solution to be tested or saline were preincubated for […] at 37° C. in a […].). 50 uL of adenosine 5' diphosphate (ADP) (50 um final concentration) was added to the cuvettes and the aggregation was monitored for 1 minute. All compounds are tested in duplicate. Results are calculated as follows: Percent of control=[(maximal OD minus initial OD of compound) divided by (maximal OD minus initial OD of control saline)]×100. The % inhibition=100-(percent of control).
The compounds tested and their median inhibitory concentrations (IC50) are recorded in Table I. IC50 's (dosage at which 50% of platelet aggregation is inhibited) were calculated by linear regression of the dose response curve.

SMILES	inhibition at 10 µM [%]	IC50 [nM]
CN=C(NCCC(=O)NCCC(=O)O)Nc1ccc(C(=N)N)cc1 [Example 6, β-[[3-[[[4-(aminoiminomethyl)phenyl]amino]N-methylcarbonylimide]aminopropanoyl]amino]propanoic acid]	5	
N=C(N)c1ccc(NC(=S)NCCC(=O)NCCC(=O)O)cc1 [Example 8, β-[[3-[[[4(aminoiminomethyl)phenyl]amino]-thiocarbonyl]aminopropanoyl]amino]propanoic acid]		4900
N=C(N)c1ccc(NC(=O)NC(CC(=O)NCCC(=O)O)c2cccnc2)cc1 (stereo not drawn) [Example 12, β-[[3-[[[[4-(aminoiminomethyl)phenyl]amino]-carbonyl]amino](3-pyridine)propanoyl]amino]-propanoic acid]		6000
N=C(N)c1ccc(NC(=O)NCC(=O)NC(CC(=O)O)c2cccnc2)cc1 (stereo not shown) [Example 4]		260
N=C(N)c1ccc(NC(=O)NCCC(=O)NC(CC(=O)O)c2cccnc2)cc1 (stereo not shown) [Example 2]		330
CC(C)[C@H](NC(=O)Nc1ccc(C(=N)N)cc1)C(=O)NC(CC(=O)O)c1cccnc1 (single isomer, unassigned) [10 (isomer 1)]	9	
C[C@H](CNC(=O)Nc1ccc(C(=N)N)cc1)C(=O)NC(CC(=O)O)c1ccc2c(c1)OCO2 (single isomer, unassigned) [14 (isomer 1)]		2000
